# Source: patent US20240174641A1, “HETEROCYCLIC COMPOUNDS CAPABLE OF […]” (Boehringer Ingelheim International GmbH, priority 2022, published 2024)
# Experiments:
# STING = STING (Canis lupus familiaris, UniProt A0A8I3MH52); test: Dog whole blood (dWB) assay, IFNb secretion by ELISA; assay type: cell-based; conditions: canine Interferon-beta (IFNb) ELISA, 4 h incubation at 37° C.
# Experimental: For the detection of STING activation in physiological environment dog whole blood (dWB) was stimulated by the cyclic dinucleotide cGAMP or a test compound. Pathway activity was monitored by measuring the IFNb production.
# Compounds were delivered as 10 mM DMSO solution, diluted and transferred by using an Echo acoustic dispenser to the 384 well assay plate (Greiner #781182), pre-filled with 10 μl 1×HBSS in each well (10×HBSS (+Ca/+Mg), #14065-049, Gibco). Typically, 8 concentrations were used with the highest concentration at 10 μM in the final assay volume followed by approximately 1:4 dilution steps. DMSO concentration was set to 0.1% in the final assay volume. The 384-well assay plate contained 20 test compounds and DMSO in control and cGAMP standard wells. The dog whole blood was collected as Na-Citrate blood (e.g., 3.8% in Monovettes from Sarstedt) and kept at 4° C. overnight until use in the assay. 80 μl of the whole blood samples were transferred to each well of the 384-well assay plates filled with compound/1×HBSS. Blood plates were kept at room temperature for 60 minutes and continuous shaking with 450 rpm, covered with the lid, but not sealed. A 10×cGAMP assay solution was diluted from a 2 mM stock solution in 1×HBSS immediately before use at room temperature. 10 μl of the 10×cGAMP/HBSS were added to the high control wells, whereas HBSS only was added to all compound and low control wells. After covering assay plates with the lid, blood plates were kept for a 4 h incubation at 37° C. in the incubator, without shaking. For the detection of IFNb in dog plasma the ELISA Kit for Canine Interferon Beta (Biotrend #SEA222Ca) was used. Whole blood assay plates were centrifuged at 1000 g for 10 minutes at 8° C. […] was transferred with a 96 well pipetting robotics from the 384 well whole blood plate to the corresponding 96 well ELISA plate, pre-filled with 60 μl assay diluent in each well. Plates were sealed with microplate seals and kept at 4° C. overnight again. ELISA plates were brought to room temperature, followed by a 1 h incubation at 37° C. in the incubator. Detection Reagent A working solution was prepared by diluting Detection Reagent A 1:100 in Assay Reagent A. Liquid was then removed from the 96 well ELISA plate to add 100 μL Detection Reagent A working solution to each well. ELISA plates were covered with the plate sealer and incubated for 1 hour at 37° C. in the incubator. The 1× Wash buffer was prepared by diluting the 30× Wash Buffer Concentrate in H2O. Detection Reagent B working solution was prepared by diluting Detection Reagent B 1:100 in Assay Reagent B. The ELISA plates were washed three times with 350 μl wash buffer and afterwards inverted and blotted against absorbent paper to remove any liquid. 100 μL of Detection Reagent B working solution was added to each well of the ELISA plates, which are then covered with the plate sealer and incubated for 30 minutes at 37° C. in the incubator. After incubation the ELISA assay plates were washed five times with 350 μl wash buffer and were again inverted and blotted against absorbent paper to remove any remaining liquid. 90 μL of TMB Substrate was added to each well of the ELISA plates, which were then covered with the plate sealer and incubated for 15 minutes at 37° C. in the incubator. The reaction was stopped by adding 50 μL stop solution and absorbance was measured at 450 nm immediately.
# For data evaluation and calculation, % control calculation of each well was based on the mean of high (cGAMP stimulated control) and mean of low (unstimulated control) controls by using the following standard 4 parameter logistic regression formula:
# [y=(a−d)/(1+(x/c)^b)+d] • a=low value, • d=high value, • x=conc M, • c=EC50 M, • b=slope. Dog Liver Microsome (dLM) Assay
# dog STING (dSTING) = test: Dog differential scanning fluorimetry (DSF) assay, thermal shift of dog STING protein; assay type: binding; conditions: DSF (dDSF); 100 μM compound, 3 μM dog STING protein; Tm with ligand minus Tm of protein alone
# From the text: The protein used for the biophysical experiments was a recombinant dog STING protein comprising its cytosolic cGAMP binding ectodomain. A codon optimized DNA sequence (for expression in Escherichia coli) encoding amino acid residues 149 to 375 of dog STING was synthesized by GeneArt (Regensburg, Germany) and inserted into a pET17b E. coli expression vector. The protein construct encodes an N-terminal 8×His-tag followed by tobacco etch virus protease (TEV) cleavage site and the above STING gene sequence. The resulting protein sequence for the used dog STING protein (SEQ ID No. 1) is listed below:
# For expression of the above recombinant dog STING, the construct was transformed into E. coli BL21 DE3 strain and grown in shake flasks in LB-medium at 15° C. Expression was induced by addition of isopropyl β-D-1-thiogalactopyranoside to a final concentration of 1 mM and cultures shaken overnight. Cell pellets were centrifuged and stored at −70° C. until further use. Protein was purified by cell thawing in lysis buffer (20 mM TRIS-HCl, pH 8, 500 mM NaCl, 1 mM DTT, 0.5 mg/ml lysozyme, Complete Protease Inhibitor (Roche) and DNase (Roche)), followed by metal affinity purification using Ni-NTA resins and elution buffer consisting of 20 mM TRIS-HCl, pH 8, 500 mM NaCl, 1 mM DTT, 300 mM imidazole. Cleavage of the His-Tag using TEV-protease took place during dialysis in size exclusion buffer (20 mM TRIS-HCl, pH 8, 100 mM NaCl, 1 mM DTT) over night. To further purify the target protein a reverse Nickel affinity column was used and the flow through was applied to a size exclusion chromatography. The peak fraction was collected and concentrated to 5 mg/mL.
# Dye fluorescence is quenched in aqueous environment and increases upon association of the dye with the hydrophobic parts of the unfolding protein. […] The inflection point of the curve represents the “melting” temperature of the protein (Tm) which is calculated numerically using the Boltzmann equation.
# The thermal stability of the dog STING protein was measured in assay buffer containing 20 mM Tris, 150 mM NaCl at pH7.5. The assay uses 384-Well qPCR Plates (Catalog #781358, BRAND), Microseal® ‘B’ Adhesive Seals for PCR Plates (Catalog #MSB-1001, BIO-RAD) and was run on a CFX384 Real-Time System (Bio-Rad). A DMSO stock solution of SYPRO orange (SIGMA 55692-500UL) was prepared. Compound stock solutions (10 mM in DMSO) were diluted 1:2 in DMSO to an intermediate compound concentration of 5 mM and then further diluted 1:40 in assay buffer resulting in a compound concentration of 125 μM and 2.5% DMSO. Fluorescent dye stock solution (5000×SYPRO Orange) was then mixed with target protein and buffer to a concentration of 15 μM Protein and 25×SYPRO Orange. 2 μl of this protein-dye-mixture was added to 8 μl compound solution. Final volume was 10 μL. 3-6 well positions were used as negative control (protein with 2% DMSO). The plates were prepared for duplicate measurement and centrifuged for 2 min at 1000 g. In the measurement, 160 cycles of 0.5° C. were used (temperature ramp 15 s/cycle, 15° C. to 95° C.).
# Final Assay concentrations for compound characterization were 100 μM compound, 3 μM target protein, 5×SYPRO Orange, and 2% DMSO in 10 μl. All dispensing steps were performed using a HamiltonStar pipetting robot (Hamilton).
# Dissociation curves were processed in Bio-Rad CFX Manager. Peak type was set to “negative”. Compound codes for screen were assigned in the plate layout.
# Two replicates of TM measurements were averaged, and the standard deviation was calculated. In cases of SD>1.5° C. the measurement was repeated.
# The melting point (Tm) obtained for STING protein alone was subtracted from T obtained for protein incubated with ligand to generate ΔTm values.
# STING, sequence (A0A8I3MH52 1-374): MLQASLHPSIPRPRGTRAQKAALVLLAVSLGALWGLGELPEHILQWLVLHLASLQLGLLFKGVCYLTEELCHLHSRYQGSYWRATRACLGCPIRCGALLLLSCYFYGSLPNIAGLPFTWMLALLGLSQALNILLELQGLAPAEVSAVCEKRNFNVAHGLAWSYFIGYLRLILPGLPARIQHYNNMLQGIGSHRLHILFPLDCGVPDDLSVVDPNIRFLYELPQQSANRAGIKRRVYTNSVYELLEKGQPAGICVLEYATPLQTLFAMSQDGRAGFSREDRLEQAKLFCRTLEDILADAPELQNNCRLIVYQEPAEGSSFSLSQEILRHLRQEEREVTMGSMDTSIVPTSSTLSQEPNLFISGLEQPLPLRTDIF
Compound,EC50 (STING),Delta TM (dog STING (dSTING))
"2-[4-(5-{3″-fluoro-2″,7-dimethyl- 1H,2″H-[3,4″-biindazol]-1-yl}pyridin-2- yl)morpholin-2-yl]acetic acid [Example 18]",1070 nM,28.8 °C
"Cc1cccc2c(-c3cccc4nn(C)c(F)c34)nn(-c3ccc(N4CC5CCC4CC5C(=O)O)nc3)c12 (single isomer, unassigned) [Example 20-3, 2-(5-{3'-fluoro-2',7-dimethyl-1H,2'H-[3,4'-biindazol]-1-yl}pyridin-2-yl)-2-azabicyclo[2.2.2]octane-5-carboxylic acid]",195 nM,35.9 °C
"Cc1cccc2c(-c3cccc4nn(C)c(F)c34)nn(-c3ccc(N4CC5CCC4CC5C(=O)O)nc3)c12 (single isomer, unassigned) [Example 20-4, 2-(5-{3'-fluoro-2',7-dimethyl-1H,2'H-[3,4'-biindazol]-1-yl}pyridin-2-yl)-2-azabicyclo[2.2.2]octane-5-carboxylic acid]",207 nM,36.9 °C
"Cc1cccc2c(-c3c(F)ccc4nn(C)cc34)nn(-c3ccc(N4CC5CCC4CC5C(=O)O)nc3)c12 (single isomer, unassigned) [Example 28-3]",222 nM,37.1 °C
"Cc1cccc2c(-c3c(F)ccc4nn(C)cc34)nn(-c3ccc(N4CC5CCC4CC5C(=O)O)nc3)c12 (single isomer, unassigned) [Example 28-4]",206 nM,37.9 °C
"Cc1cccc2c(-c3c(F)cc(F)c4nn(C)cc34)nn(-c3ccc(N4C[C@@H]5C[C@H]4C[C@H]5C(=O)O)nc3)c12 (single isomer, unassigned) [Example 47-1]",628 nM,34.0 °C
"Cc1cccc2c(-c3c(F)cc(F)c4nn(C)cc34)nn(-c3ccc(N4C[C@H]5C[C@@H]4C[C@@H]5C(=O)O)nc3)c12 (single isomer, unassigned) [Example 47-2]",200 nM,35.5 °C
"Cc1cccc2c(-c3c(F)cc(F)c4nn(C)cc34)nn(-c3ccc(N4CC5CCC4CC5C(=O)O)nc3)c12 (single isomer, unassigned) [Example 48-3]",184 nM,35.4 °C
"Cc1cccc2c(-c3c(F)cc(F)c4nn(C)cc34)nn(-c3ccc(N4CC5CCC4CC5C(=O)O)nc3)c12 (single isomer, unassigned) [Example 48-4]",169 nM,36.1 °C
"Cc1cccc2c(-c3cccc4nn(C)c(F)c34)nn(-c3ccc(N4CCOC(CC(=O)O)C4)nc3)c12 (single isomer, unassigned) [Example 72-1]",810 nM,30.0 °C
"Cc1cccc2c(-c3cccc4nn(C)c(F)c34)nn(-c3ccc(N4CCOC(CC(=O)O)C4)nc3)c12 (single isomer, unassigned) [Example 72-3]",5230 nM,28.5 °C
"Cc1cccc2c(-c3cccc4nn(C)c(F)c34)nn(-c3ccc(N4CCC(C(=O)O)CC4)nc3)c12 [Example 2, 1-(5-{3″-Fluoro-2″,7-dimethyl-1H,2″H-[3,4″-biindazol]-1-yl}pyridin-2-yl)piperidine-4-carboxylic acid]",236 nM,34.5 °C
"Cc1cccc2c(-c3ccc(F)c4nn(C)cc34)nn(-c3ccc(N4C[C@@H]5[C@H](C4)[C@H]5C(=O)O)nc3)c12 [Example 3, (1R,5S,6R)-3-(5-{7″-Fluoro-2″,7-dimethyl-1H,2″H-[3,4″-biindazol]-1-yl}pyridin-2-yl)-3-azabicyclo[3.1.0]hexane-6-carboxylic acid]",730 nM,32.2 °C
"CC(=O)N1CCN(c2ccc(-n3nc(-c4ccc(F)c5nn(C)c(F)c45)c4cccc(C)c43)cn2)CC1 [Example 57, 1-[4-(5-{3″,7″-difluoro-2″,7-dimethyl-1H,2″H-[3,4″-biindazol]-1-yl}pyridin-2-yl)piperazin-1-yl]ethan-1-one]",,27.5 °C
"Cc1c(F)ccc2c(-c3c(F)cc(F)c4nn(C)cc34)nn(-c3ccc(N4C[C@@H]5[C@H](C4)[C@H]5C(=O)O)nc3)c12 [Example 69, (1R,5S,6S)-3-(5-{5″,6,7″-trifluoro-2″,7-dimethyl-1H,2″H-[3,4″-biindazol]-1-yl}pyridin-2-yl)-3-azabicyclo[3.1.0]hexane-6-carboxylic acid]",,35.0 °C
"CC(=O)N1CCN(c2ccc(-n3nc(-c4c(F)cc(F)c5nn(C)cc45)c4ccc(F)c(C)c43)cn2)CC1 [Example 71, 1-[4-(5-{5″,6,7″-trifluoro-2″,7-dimethyl-1H,2″H-[3,4″-biindazol]-1-yl}pyridin-2-yl)piperazin-1-yl]ethan-1-one]",,31.3 °C
"Cc1cccc2c(-c3cc(F)cc4nn(C)c(F)c34)nn(-c3ccc(N4C[C@@H]5[C@H](C4)[C@H]5C(=O)O)nc3)c12 [Example 75, (1R,5S,6R)-3-(5-{3″,6″-difluoro-2″,7-dimethyl-1H,2″H-[3,4″-biindazol]-1-yl}pyridin-2-yl)-3-azabicyclo[3.1.0]hexane-6-carboxylic acid]",,21.8 °C
